Source: US4797415A, “Benzofuran derivatives and use thereof for treating hyperuricemia” (Kotobuki Seiyaku Company Limited, priority 1982, dated 1989)
Read-outs that look alike come from different tables or passages of the source.

Legend:
[1] = tested on: phenol red retention in circulation; experiment: Uricosuric activity by phenol red retention test in mice; format: in vivo, male mice; conditions: Mus musculus, 1 h
Procedure: (§1) Blood samples were collected from the retro-orbital plexus into heparinized capillary tubes 60 minutes after the phenol red injection. The retention of phenol red in circulation was determined according to the method described in J. Med. Pharmaceu.
Benzobromarone was administered subcutaneously to mice in an amount of 200 mg./kg. as a control or standard.

phenol red retention = experiment: Uricosuric activity by phenol red method in rats; format: in vivo; conditions: p.o. 100 mg/kg
Procedure: as §1
The same test of uricosuric activity was applied to rats.

in vivo = conditions: mouse, po, p.o. in mice
Excerpt: In general, the compounds related to this invention have a potent uriosuric activiity and some of them are considered promising for clinical use. The toxicity of these compounds is much lower than that of the typical uricosuric agent: benzbromarone.

[2] = po, mice, p.o. 200 mg/kg, 30 min before 75 mg/kg phenol red, blood 60 min after phenol red, read-out: phenol red retention, percentage by comparison with the control group, P.O. (200 mg/kg)
[3] = sc, mice, s.c. 200 mg/kg, 30 min before 75 mg/kg phenol red, blood 60 min after phenol red, read-out: phenol red retention, percentage by comparison with the control group, S.C. (200 mg/kg)

Row | SMILES | response vs control in vivo at 200 mg/kg [1, 2] [%] | Phenol Red Retention % in Rats 100 mg/kg (p.o.) (phenol red retention) [%] | response vs control in vivo at 200 mg/kg [1, 3] [%] | response vs control in vivo at 200 mg/kg ([1]; sc, read-out: phenol red retention, percentage by comparison with the control group, S.C. (200 mg/kg)) [%] | LD50 (in vivo) [mg/kg]
1 | CCc1oc2ccccc2c1C(=O)c1ccc(OCC(=O)O)c(C)c1C [Compound 35, 2,3-dimethyl-4-(2-ethyl-3-benzofuroyl)phenoxyacetic acid] | 319 ± 14.3 | 269.0 ± 31.0 |  |  | 
2 | CCc1oc2ccccc2c1C(=O)c1ccc(OCC(=O)O)c(C)c1 [Compound 25, 2-methyl-4-(2-ethyl-3-benzofuroyl)phenoxyacetic acid] | 200 ± 25 | 208.1 ± 27.0 | 189 ± 27.8 |  | 
3 | CCc1oc2ccccc2c1C(=O)c1cc(Br)c(O)c(Br)c1 [Benzbromarone, benzbromarone, reference compound] |  | 163.9 ± 25.0 |  | 184 | 361
4 | CCc1oc2ccccc2c1C(=O)c1ccc(OCC(=O)O)cc1 [Compound 3, 4-(2-ethyl-3-benzofuroyl)phenoxyacetic acid] | 175 ± 15.5 | 194.6 ± 29.7 | 169 ± 18.1 |  | 2110
